Earlier results on three compounds are cited in US7625888B2, “Fused triazole derivatives as dipeptidyl peptidase-IV inhibitors for the treatment or prevention of diabetes” (Merck & Co., Inc., priority 2004, dated 2009).

For one data set, the system named is cardiac allograft. The following applies: rats; doubled from day 7.
A further data set deals with T1, DPP-IV (Homo sapiens, UniProt P27487).
T1 construct: GRF is rapidly degraded in plasma to GRF[3-44]

In another data set the test system is hematopoiesis. The following applies: mouse, cyclophosphamide-induced neutropenia.

T1 sequence (P27487 39-766 limits assumed, species assumed): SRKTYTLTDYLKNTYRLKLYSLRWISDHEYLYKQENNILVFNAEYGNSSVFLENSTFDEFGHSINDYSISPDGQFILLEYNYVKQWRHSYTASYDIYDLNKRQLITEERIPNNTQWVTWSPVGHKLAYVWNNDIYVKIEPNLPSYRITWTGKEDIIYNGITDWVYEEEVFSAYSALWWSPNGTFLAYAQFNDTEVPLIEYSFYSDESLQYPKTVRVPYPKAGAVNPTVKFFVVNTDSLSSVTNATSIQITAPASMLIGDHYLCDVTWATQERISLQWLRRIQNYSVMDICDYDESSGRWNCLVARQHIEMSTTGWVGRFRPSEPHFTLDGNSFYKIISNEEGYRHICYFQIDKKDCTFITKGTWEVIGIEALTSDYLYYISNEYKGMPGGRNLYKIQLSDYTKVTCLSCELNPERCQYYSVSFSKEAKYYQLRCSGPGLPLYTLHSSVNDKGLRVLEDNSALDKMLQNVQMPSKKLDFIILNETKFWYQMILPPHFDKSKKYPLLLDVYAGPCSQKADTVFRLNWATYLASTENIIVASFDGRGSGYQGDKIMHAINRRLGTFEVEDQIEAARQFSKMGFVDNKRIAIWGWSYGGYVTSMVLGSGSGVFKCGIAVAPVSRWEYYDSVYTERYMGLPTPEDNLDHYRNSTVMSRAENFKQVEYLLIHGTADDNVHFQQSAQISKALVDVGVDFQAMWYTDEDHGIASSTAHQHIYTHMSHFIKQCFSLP

As to `CC(C)N1CCC(c2ccccc2)(c2ccccc2)CC1` [Prodipine, Pro-Pro-diphenyl-phosphonate], the cardiac allograft survival in the data set with cardiac allograft was 14 day.
Turning to diprotin A, at DPP-IV, the “degradation of GRF in plasma to GRF[3-44]” value is “prevented”.
Regarding `CC(C)[C@H](N)C(=O)N1CCC[C@H]1B(O)O` [Val-Boro-Pro], in the data set on hematopoiesis, the effect on hematopoiesis entry is reported as “stimulated hematopoiesis”.
